What was measured:
Assay in all cases: Kinase inhibitor library screening, PrestoBlue cell viability, 1 or 10 μM, 72 h
[1] = tested on: 501Mel-GP cells (Dabrafenib-resistant); details: 72 h; for viability at 1 µM / viability at 10 µM: Homo sapiens; for viability at 1 µM: read-out: cell viability, 501Mel GP, 1μΜ; for viability at 10 µM: read-out: cell viability, 501Mel GP, 10μΜ
Procedure: (§1) After 72 h of treatment, cell viability was assessed using the PrestoBlue Cell Viability Reagent (ThermoFisher Scientific). Measurements were performed with the CLARIOstar Monochromator microplate reader (BMG Labtech).
(§2) Kinase inhibitor library screening. […] Each cell line was treated in its sensitive form (parental), and also as 2 resistant derivatives, which were made resistant to either Vemurafenib (XP) or Dabrafenib (GP). Drugs were added at 2 different concentrations, 1 and 10 μM, for 72 h and cell viability was assessed using the PrestoBlue Cell Viability assay. Results are depicted as % viability compared to untreated cells. Each cell line was analyzed at least in duplicate. […] (XLSX 95 kb)

[2] = tested on: 501Mel-XP cells (Vemurafenib-resistant); details: 72 h; for viability at 1 µM / viability at 10 µM: Homo sapiens; for viability at 1 µM: read-out: cell viability, 501Mel XP, 1μΜ; for viability at 10 µM: read-out: cell viability, 501Mel XP, 10μΜ
Procedure: as §1, §2

[3] = tested on: A375-GP cells (Dabrafenib-resistant); details: for viability at 1 µM / viability at 10 µM: Homo sapiens, A-375, 72 h; for viability at 1 µM: read-out: cell viability, A375 GP, 1μΜ; for viability at 10 µM: read-out: cell viability, A375 GP, 10μΜ
Procedure: as §1, §2

A375 cells (parental) = details: for viability at 1 µM / viability at 10 µM: Homo sapiens, A-375, 72 h; for viability at 1 µM: read-out: cell viability, A375 Parental, 1μΜ; for viability at 10 µM: read-out: cell viability, A375 Parental, 10μΜ
Procedure: as §1, §2

501Mel cells (parental) = details: 72 h; for viability at 1 µM / viability at 10 µM: Homo sapiens; for viability at 1 µM: read-out: cell viability, 501Mel Parental, 1μΜ; for viability at 10 µM: read-out: cell viability, 501Mel Parental, 10μΜ
Procedure: as §1, §2

[4] = tested on: IGR37-GP cells (Dabrafenib-resistant); details: for viability at 1 µM / viability at 10 µM: Homo sapiens, IGR-37, 72 h; for viability at 1 µM: read-out: cell viability, IGR37 GP, 1μΜ; for viability at 10 µM: read-out: cell viability, IGR37 GP, 10μΜ
Procedure: as §1, §2

IGR37 cells (parental) = details: for viability at 1 µM / viability at 10 µM: Homo sapiens, IGR-37, 72 h; for viability at 1 µM: read-out: cell viability, IGR37 Parental, 1μΜ; for viability at 10 µM: read-out: cell viability, IGR37 Parental, 10μΜ
Procedure: as §1, §2

[5] = tested on: IGR37-XP cells (Vemurafenib-resistant); details: for viability at 1 µM / viability at 10 µM: Homo sapiens, IGR-37, 72 h; for viability at 1 µM: read-out: cell viability, IGR37 XP, 1μΜ; for viability at 10 µM: read-out: cell viability, IGR37 XP, 10μΜ
Procedure: as §1, §2

[6] = tested on: A375-XP cells (Vemurafenib-resistant); details: for viability at 1 µM / viability at 10 µM: Homo sapiens, A-375, 72 h; for viability at 1 µM: read-out: cell viability, A375 XP, 1μΜ; for viability at 10 µM: read-out: cell viability, A375 XP, 10μΜ
Procedure: as §1, §2

SMILES	viability at 1 µM [1] [%]	viability at 10 µM [1] [%]	viability at 1 µM [2] [%]	viability at 10 µM [2] [%]	viability at 1 µM [3] [%]	viability at 10 µM [3] [%]	viability at 1 µM (A375 cells (parental)) [%]	viability at 10 µM (A375 cells (parental)) [%]	viability at 1 µM (501Mel cells (parental)) [%]	viability at 10 µM (501Mel cells (parental)) [%]	viability at 1 µM [4] [%]	viability at 10 µM [4] [%]	viability at 1 µM (IGR37 cells (parental)) [%]	viability at 10 µM (IGR37 cells (parental)) [%]	viability at 1 µM [5] [%]	viability at 10 µM [5] [%]	viability at 1 µM [6] [%]	viability at 10 µM [6] [%]	further results
Cc1cc(Nc2ncnc3ccc(NC4=NC(C)(C)CO4)cc23)ccc1Oc1ccn2ncnc2c1 [Arry-380]	101	56.8	117	52.3	105	77.8	105	89.6	103	69.6	96.4	57.2	108	103	99.7	24.3	106	80.2	
CCN1CCN(C(=O)Cc2ccc(Nc3ncc(F)c(Nc4ccc(C(=O)Nc5ccccc5Cl)cc4)n3)cc2)CC1 [Aurora A Inhibitor I]																			cell viability (kinase inhibitor library screening) ([1]; 501Mel GP, 1μΜ): 99.5%; cell viability (kinase inhibitor library screening) ([1]; 501Mel GP, 10μΜ): 29.4%; cell viability (kinase inhibitor library screening) ([2]; 501Mel XP, 1μΜ): 75.4%; cell viability (kinase inhibitor library screening) ([2]; 501Mel XP, 10μΜ): 4.3%; cell viability (kinase inhibitor library screening) ([3]; A375 GP, 1μΜ, 72 h): 90.9%; cell viability (kinase inhibitor library screening) ([3]; A375 GP, 10μΜ, 72 h): 42.7%; cell viability (kinase inhibitor library screening) (A375 cells (parental); A375 Parental, 10μΜ, 72 h): 48.5%; cell viability (kinase inhibitor library screening) (A375 cells (parental); A375 Parental, 1μΜ, 72 h): 96.9%; cell viability (kinase inhibitor library screening) (501Mel cells (parental); 501Mel Parental, 1μΜ): 105.7%; cell viability (kinase inhibitor library screening) (501Mel cells (parental); 501Mel Parental, 10μΜ): 41.4%; cell viability (kinase inhibitor library screening) ([4]; IGR37 GP, 1μΜ, 72 h): 90.4%; cell viability (kinase inhibitor library screening) ([4]; IGR37 GP, 10μΜ, 72 h): 5.3%; cell viability (kinase inhibitor library screening) (IGR37 cells (parental); IGR37 Parental, 1μΜ, 72 h): 94.5%; cell viability (kinase inhibitor library screening) (IGR37 cells (parental); IGR37 Parental, 10μΜ, 72 h): 4.6%; cell viability (kinase inhibitor library screening) ([5]; IGR37 XP, 1μΜ, 72 h): 92.1%; cell viability (kinase inhibitor library screening) ([5]; IGR37 XP, 10μΜ, 72 h): 2.4%; cell viability (kinase inhibitor library screening) ([6]; A375 XP, 1μΜ, 72 h): 95.8%; cell viability (kinase inhibitor library screening) ([6]; A375 XP, 10μΜ, 72 h): 37.0%
Cn1c(=O)n(-c2ccc(C(C)(C)C#N)cc2)c2c3cc(-c4cnc5ccccc5c4)ccc3ncc21 [BEZ235 (NVP-BEZ235)]																			Cell viability in kinase inhibitor library screening, 501Mel GP, 1μΜ ([1]; 501Mel GP, 1μΜ, in %): 19.1; Cell viability in kinase inhibitor library screening, 501Mel GP, 10μΜ ([1]; 501Mel GP, 10μΜ, in %): 6.4; Cell viability in kinase inhibitor library screening, 501Mel XP, 1μΜ ([2]; 501Mel XP, 1μΜ, in %): 11.4; Cell viability in kinase inhibitor library screening, 501Mel XP, 10μΜ ([2]; 501Mel XP, 10μΜ, in %): 0.9; Cell viability in kinase inhibitor library screening, A375 GP, 1μΜ ([3]; A375 GP, 1μΜ, 72 h): 22.0; Cell viability in kinase inhibitor library screening, A375 GP, 10μΜ ([3]; A375 GP, 10μΜ, 72 h): 8.5; Cell viability in kinase inhibitor library screening, A375 Parental, 10μΜ (A375 cells (parental); A375 Parental, 10μΜ, 72 h): 10.9; Cell viability in kinase inhibitor library screening, A375 Parental, 1μΜ (A375 cells (parental); A375 Parental, 1μΜ, 72 h): 23.9; Cell viability in kinase inhibitor library screening, 501Mel Parental, 1μΜ (501Mel cells (parental); 501Mel Parental, 1μΜ, in %): 13.9; Cell viability in kinase inhibitor library screening, 501Mel Parental, 10μΜ (501Mel cells (parental); 501Mel Parental, 10μΜ, in %): 2.6; Cell viability in kinase inhibitor library screening, IGR37 GP, 10μΜ ([4]; IGR37 GP, 10μΜ, 72 h): 6.1%; Cell viability in kinase inhibitor library screening, IGR37 GP, 1μΜ ([4]; IGR37 GP, 1μΜ, 72 h, in %): 53.8; Cell viability in kinase inhibitor library screening, IGR37 Parental, 1μΜ (IGR37 cells (parental); IGR37 Parental, 1μΜ, 72 h, in %): 26.1; Cell viability in kinase inhibitor library screening, IGR37 Parental, 10μΜ (IGR37 cells (parental); IGR37 Parental, 10μΜ, 72 h, in %): 12.4; Cell viability in kinase inhibitor library screening, IGR37 XP, 10μΜ ([5]; IGR37 XP, 10μΜ, 72 h): 5.2%; Cell viability in kinase inhibitor library screening, IGR37 XP, 1μΜ ([5]; IGR37 XP, 1μΜ, 72 h, in %): 49.3; Cell viability in kinase inhibitor library screening, A375 XP, 1μΜ ([6]; A375 XP, 1μΜ, 72 h): 20.9; Cell viability in kinase inhibitor library screening, A375 XP, 10μΜ ([6]; A375 XP, 10μΜ, 72 h): 13.2
CCN1CCN(c2ccc(Nc3cc(N(C)C(=O)Nc4c(Cl)c(OC)cc(OC)c4Cl)ncn3)cc2)CC1 [BGJ398 (NVP-BGJ398)]	108	0.142	97.9	-0.109	101	6.6	101	9	96.6	0.424	87.7	3.2	100	4.3	97.5	1	104	3.9	
